ChEMBL document CHEMBL1148113, “New cytotoxic monotetrahydrofuran annonaceous acetogenins from Annona muricata” (J Nat Prod, 2002)
In brackets after ≈: the same amount, converted by molar mass.

Key:
[1] = system: HepG2; experiment: Cytotoxicity against human HepG2 cells after 3 days; type: functional, cell-based; conditions: HepG2, 72 h
[2] = Cytotoxicity against human HepG2(2.2.15) cells after 3 days; type: functional, cell-based; conditions: HepG2 2.2.15, 72 h

| SMILES | IC50 [1] | IC50 [2] |
| --- | --- | --- |
| CCCCCCCCCCCC[C@@H](O)[C@H]1CC[C@@H]([C@@H](O)CCCCCCC(O)CCCCC[C@@H](O)CC2=C[C@H](C)OC2=O)O1 (stereo partly drawn) | 0.298 µg/mL (≈ 0.477 µM) | 0.0162 µg/mL (≈ 0.0259 µM) |
| CCC[C@H](O)[C@@H](O)CCCCCCCC[C@@H](O)[C@H]1CC[C@H](CCCCCCCCCC[C@@H](O)CC2=C[C@H](C)OC2=O)O1 [ANNOCATALIN] | 5.7 µg/mL (≈ 9.55 µM) | 0.00348 µg/mL (≈ 0.00583 µM) |
| CCCCCCCCCCCC[C@@H](O)[C@H]1CC[C@@H]([C@@H](O)CCCCC(=O)CCCCCCCC2=C[C@H](C)OC2=O)O1 [COROSSOLONE] | 0.165 µg/mL (≈ 0.285 µM) | 0.0476 µg/mL (≈ 0.0822 µM) |
| COc1cccc2c1C(=O)c1c(O)c3c(c(O)c1C2=O)C[C@@](O)(C(=O)CO)C[C@@H]3O[C@H]1C[C@H](N)[C@H](O)[C@H](C)O1 [DOXORUBICIN] | 0.241 µg/mL (≈ 0.443 µM) | 0.45 µg/mL (≈ 0.828 µM) |
| CCCCCC(O)C(O)CCCCCC[C@@H](O)[C@H]1CC[C@H](CCCCCCCCCC[C@@H](O)CC2=C[C@H](C)OC2=O)O1 (stereo partly drawn) [MURICIN A] | 5.04 µg/mL (≈ 8.44 µM) | 0.00513 µg/mL (≈ 0.00859 µM) |
| CCCCCC(O)C(O)CCCCCC[C@H](O)[C@@H]1CC[C@H](CCCCCCCCCC[C@H](O)CC2=C[C@H](C)OC2=O)O1 (stereo partly drawn) [MURICIN B] | 1.78 µg/mL (≈ 2.98 µM) | 0.00429 µg/mL (≈ 0.00719 µM) |
| CCCCCCCC(O)C(O)CC[C@H](O)[C@@H]1CC[C@H](CCCCCCCCCCCC[C@@H](O)CC2=C[C@H](C)OC2=O)O1 (stereo partly drawn) [MURICIN C] | 0.499 µg/mL (≈ 0.836 µM) | 0.00387 µg/mL (≈ 0.00648 µM) |
| CCCCCCC[C@H](O)[C@@H](O)CCCC[C@@H](O)[C@H]1CC[C@H](CCCCCCCCCCCCC2=C[C@H](C)OC2=O)O1 [MURICIN H] | 0.0951 µg/mL (≈ 0.164 µM) | 0.0118 µg/mL (≈ 0.0203 µM) |
| CCCCC/C=C\CC[C@H](O)[C@@H](O)CCCC[C@@H](O)[C@H]1CC[C@H](CCCCCCCCCCCCC2=C[C@H](C)OC2=O)O1 [MURICIN I] | 0.0509 µg/mL (≈ 0.0839 µM) | 0.222 µg/mL (≈ 0.366 µM) |
